In PubChem BioAssay AID330 (DTP/NCI, 2004) one finds T/C data, which are given here for 23 molecules.

This assay relates to P388 leukemia ip, CD2F1 mice, survival T/C. Briefly: NCI In Vivo Anticancer Drug Screen. Data for tumor model P388 Leukemia (intraperitoneal) in CD2F1 (CDF1) mice. Conditions: endpoint: median survival time, higher = longer survival. In outline:
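Mice carrying the transplanted tumor received test compound or vehicle. Survival was recorded in each group, and the value is the treated-group measurement divided by that of the vehicle-treated control group.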

[1] abbreviates: dose: 50.0 mg/kg/injection, schedule: Q01DX005 (ip), vehicle: Klucel (hydroxypropylcellulose) (HPC).
Where [2] appears, read: dose: 100.0 mg/kg/injection, schedule: Q01DX005 (ip), vehicle: Klucel (hydroxypropylcellulose) (HPC).
Setting [3] is: dose: 200.0 mg/kg/injection, schedule: Q01DX005 (ip), vehicle: Klucel (hydroxypropylcellulose) (HPC).
[4] abbreviates: dose: 50.0 mg/kg/injection, schedule: Q01DX005 (ip), vehicle: saline with Tween-80.
Setting [5] is: dose: 100.0 mg/kg/injection, schedule: Q01DX005 (ip), vehicle: saline with Tween-80.
Setting [6] is: dose: 200.0 mg/kg/injection, schedule: Q01DX005 (ip), vehicle: saline with Tween-80.
The mark [7] stands for this setting: dose: 60.0 mg/kg/injection, schedule: Q01DX005 (ip), vehicle: saline with Tween-80.
Where [8] appears, read: dose: 120.0 mg/kg/injection, schedule: Q01DX005 (ip), vehicle: saline with Tween-80.
[9] abbreviates: dose: 240.0 mg/kg/injection, schedule: Q01DX005 (ip), vehicle: saline with Tween-80.
Setting [10] is: dose: 100.0 mg/kg/injection, schedule: Q01DX001 (ip), vehicle: Klucel (hydroxypropylcellulose) (HPC).
Setting [11] is: dose: 200.0 mg/kg/injection, schedule: Q01DX001 (ip), vehicle: Klucel (hydroxypropylcellulose) (HPC).
[12] abbreviates: dose: 12.5 mg/kg/injection, schedule: Q01DX009 (ip), vehicle: saline.
[13] abbreviates: dose: 25.0 mg/kg/injection, schedule: Q01DX009 (ip), vehicle: saline.
Setting [14] is: dose: 50.0 mg/kg/injection, schedule: Q01DX009 (ip), vehicle: saline.
The mark [15] stands for this setting: dose: 100.0 mg/kg/injection, schedule: Q01DX009 (ip), vehicle: saline.

Structures are written as SMILES. “And” between values parts separate entries of the source, which are not always exact repeats. Equal entries are not always repeated. Toxic doses and inconclusive results are not listed.

As for `CCN(CC)CC.[CH-]1CCCCC1.[CH-]1CCCCC1.[CH-]1CCCCC1.[Cl-].[I-].[Sn+4]`, the T/C is, setting by setting: (dose: 1.5 mg/kg/injection, schedule: Q01DX005 (ip), vehicle: Klucel (hydroxypropylcellulose) (HPC)) 96 % of control; (dose: 3.0 mg/kg/injection, schedule: Q01DX005 (ip), vehicle: Klucel (hydroxypropylcellulose) (HPC)) 98 % of control; (dose: 6.0 mg/kg/injection, schedule: Q01DX005 (ip), vehicle: Klucel (hydroxypropylcellulose) (HPC)) 100 % of control and 93 % of control.

Regarding `CC(=O)O.[In]`, the T/C (dose: 0.1 mg/mouse/injection, schedule: Q01DX020 (oral), vehicle: saline with Tween-80) was 100 % of control.

As for `CC(=O)Nc1ccc(S(=O)(=O)c2ccc(NC(C)=O)s2)s1`, the T/C is, setting by setting: under setting [1], 98 % of control; under setting [2], 95 % of control; under setting [3], 89 % of control.

Turning to `CN(C)C(=S)/N=c1\ss/c(=N/C(=S)N(C)C)n1-c1ccc([N+](=O)[O-])cc1`, the T/C is, setting by setting: (dose: 6.25 mg/kg/injection, schedule: Q01DX009 (ip), vehicle: saline with Tween-80) 102 % of control; (dose: 12.5 mg/kg/injection, schedule: Q01DX009 (ip), vehicle: saline with Tween-80) 103 % of control; (dose: 25.0 mg/kg/injection, schedule: Q01DX009 (ip), vehicle: saline with Tween-80) 103 % of control.

As to `CN1C2=CC3(OC2C(C)(C)c2ccccc21)N(C)c1ccccc1C3(C)C` (centres undefined), the T/C (dose: 60.0 mg/kg/injection, schedule: Q01DX005 (ip), vehicle: Klucel (hydroxypropylcellulose) (HPC)) was 93 % of control; the T/C (dose: 120.0 mg/kg/injection, schedule: Q01DX005 (ip), vehicle: Klucel (hydroxypropylcellulose) (HPC)) was 92 % of control; the T/C (dose: 240.0 mg/kg/injection, schedule: Q01DX005 (ip), vehicle: Klucel (hydroxypropylcellulose) (HPC)) was 93 % of control.

For `CCN(CC)c1ccc(C=C2C(=O)NC(=S)NC2=O)cc1`, the T/C runs as follows: (dose: 25.0 mg/kg/injection, schedule: Q01DX005 (ip), vehicle: Klucel (hydroxypropylcellulose) (HPC)) 101 % of control; under setting [1], 100 % of control; under setting [2], 101 % of control; under setting [3], 100 % of control.

Regarding `Cc1ccc2oc(C(=O)Nc3nnc(-c4ccccc4)s3)cc(=O)c2c1`, the T/C reads like this: under setting [4], 96 % of control; under setting [5], 94 % of control; under setting [6], 94 % of control.

Regarding `NC(=O)C1C=CN(Cc2ccccc2)C=C1`, the T/C (dose: 30.0 mg/kg/injection, schedule: Q01DX005 (ip), vehicle: saline with Tween-80) is 105 % of control and 106 % of control; the T/C under setting [7] is 108 % of control and 111 % of control and 123 % of control; the T/C under setting [8] is 117 % of control and 118 % of control; the T/C under setting [9] was 108 % of control and 123 % of control.

As for `CCOC(=O)c1ccccc1N`, the T/C (dose: 25.0 mg/kg/injection, schedule: Q01DX005 (ip), vehicle: saline with Tween-80) was 100 % of control; the T/C under setting [4] is 105 % of control; the T/C under setting [5] is 99 % of control; the T/C under setting [6] was 100 % of control.

For the molecule `COc1ccc(/C=C(\C)[N+](=O)[O-])cc1OC`, the T/C is, setting by setting: (dose: 12.5 mg/kg/injection, schedule: Q01DX009 (ip), vehicle: distilled water + Tween-80) 100 % of control; (dose: 25.0 mg/kg/injection, schedule: Q01DX009 (ip), vehicle: distilled water + Tween-80) 121 % of control; (dose: 50.0 mg/kg/injection, schedule: Q01DX009 (ip), vehicle: distilled water + Tween-80) 115 % of control; (dose: 100.0 mg/kg/injection, schedule: Q01DX009 (ip), vehicle: distilled water + Tween-80) 115 % of control.

As to `CC1(O)C2C3C(I)C4C5C3C1C5C42` (centres undefined), the T/C is 92 % of control under setting [10]; 88 % of control under setting [11]; 87 % of control (dose: 400.0 mg/kg/injection, schedule: Q01DX001 (ip), vehicle: Klucel (hydroxypropylcellulose) (HPC)).

Turning to `CCN(CC)Cc1cc(C)c(O)c(N=Nc2ccc([N+](=O)[O-])c(OC)c2)c1C`, the T/C is 92 % of control (dose: 100.0 mg/kg/injection, schedule: Q04DX003 (ip), vehicle: saline with Tween-80); 99 % of control (dose: 200.0 mg/kg/injection, schedule: Q04DX003 (ip), vehicle: saline with Tween-80); 119 % of control (dose: 400.0 mg/kg/injection, schedule: Q04DX003 (ip), vehicle: saline with Tween-80).

In the case of `C/C(COc1ccc([N+](=O)[O-])cc1)=N/NS(=O)(=O)c1cc(Cl)c(Cl)cc1Cl`, the T/C reads like this: under setting [12], 101 % of control; under setting [13], 102 % of control; under setting [14], 99 % of control and 87 % of control.

As for `O=C(NC(Cc1ccc(O)cc1)C(=O)NC(Cc1c[nH]c2ccccc12)C(=O)O)OCc1ccccc1` (centres undefined), the T/C is, setting by setting: under setting [4], 106 % of control; under setting [5], 103 % of control; under setting [6], 106 % of control.

With `O=C(N/N=C/c1ccccc1[OH2+])c1ccncc1.O=S(=O)([O-])[O-].[Fe+2]`, the T/C is, setting by setting: under setting [10], 94 % of control; under setting [11], 92 % of control.

Consider `O=C1CCCC2=C1C(c1ccccc1)C1=C(CCCC1=O)O2`, for which the T/C by setting is: under setting [7], 100 % of control; under setting [8], 94 % of control; under setting [9], 92 % of control.

As for `CCCCCCCCCC(=O)c1ccc(O)c(O)c1O`, the T/C by setting is: under setting [15], 100 % of control; (dose: 200.0 mg/kg/injection, schedule: Q01DX009 (ip), vehicle: saline) 105 % of control.

On to `Cc1cc(F)nc(F)n1`, for which the T/C was 98 % of control (dose: 50.0 mg/kg/injection, schedule: Q01DX005 (ip), vehicle: saline) and 98 % of control (dose: 100.0 mg/kg/injection, schedule: Q01DX005 (ip), vehicle: saline).

With `C[C@H]1CC[C@@]2(C)C(CCC(=O)C2(C)O)[C@]1(C)CC(=O)c1ccoc1` (some centres undefined), the T/C by setting is: (dose: 3.75 mg/kg/injection, schedule: Q01DX005 (ip), vehicle: Klucel (hydroxypropylcellulose) (HPC)) 91 % of control; (dose: 7.5 mg/kg/injection, schedule: Q01DX005 (ip), vehicle: Klucel (hydroxypropylcellulose) (HPC)) 88 % of control; (dose: 15.0 mg/kg/injection, schedule: Q01DX005 (ip), vehicle: Klucel (hydroxypropylcellulose) (HPC)) 88 % of control; (dose: 30.0 mg/kg/injection, schedule: Q01DX005 (ip), vehicle: Klucel (hydroxypropylcellulose) (HPC)) 88 % of control.

For `Clc1cc(Cl)c(C[N+]23CN4CN(CN(C4)C2)C3)cc1Cl`, the T/C is 102 % of control (dose: 6.25 mg/kg/injection, schedule: Q01DX009 (ip), vehicle: saline); 100 % of control and 107 % of control under setting [12]; 106 % of control and 109 % of control under setting [13]; 122 % of control (dose: 50.0 mg/kg/injection, schedule: Q01DX009 (ip), vehicle: saline with Tween-80); 111 % of control and 120 % of control under setting [14]; 117 % of control under setting [15].

Take `C[C@@H]1CC[C@]2(C)CC[C@]3(C)C(=CC[C@@H]4[C@@]5(C)CC[C@@H](OC(=O)c6ccc(O)cc6)C(C)(C)[C@@H]5C[C@H](O)[C@]43C)[C@@H]2[C@H]1C(=O)O`: the T/C by setting is: (dose: 0.2 mg/kg/injection, schedule: Q01DX009 (ip), vehicle: saline with Tween-80) 159 % of control; (dose: 12.5 micrograms/kg/injection, schedule: Q01DX009 (ip), vehicle: saline with Tween-80) 117 % of control; (dose: 25.0 micrograms/kg/injection, schedule: Q01DX009 (ip), vehicle: saline with Tween-80) 117 % of control; (dose: 50.0 micrograms/kg/injection, schedule: Q01DX009 (ip), vehicle: saline with Tween-80) 118 % of control; (dose: 400.0 micrograms/kg/injection, schedule: Q01DX009 (ip), vehicle: saline with Tween-80) 163 % of control.

With `CCCCCCCC(=O)Nc1cc2c3c(c1)CCCN3CCC2`, the T/C is 100 % of control (dose: 50.0 mg/kg/injection, schedule: Q01DX001 (ip), vehicle: saline with Tween-80); 95 % of control (dose: 100.0 mg/kg/injection, schedule: Q01DX001 (ip), vehicle: saline with Tween-80); 90 % of control (dose: 200.0 mg/kg/injection, schedule: Q01DX001 (ip), vehicle: saline with Tween-80).

Take `Nc1cc2cccc[n+]2c2ccccc12`: the T/C reads like this: (dose: 3.75 mg/kg/injection, schedule: Q01DX005 (ip), vehicle: saline) 110 % of control; (dose: 7.5 mg/kg/injection, schedule: Q01DX005 (ip), vehicle: saline) 106 % of control; (dose: 15.0 mg/kg/injection, schedule: Q01DX005 (ip), vehicle: saline) 120 % of control.
